{"source": "paper PMC3523469", "about": "(Investigational New Drugs, 2012)", "type": "in vivo, Japanese patients", "note": "Where two headings read alike, the source gives them in different places.", "data": [{"smiles": "COc1cc2ncnc(Nc3ccc(F)c(Cl)c3)c2cc1NC(=O)/C=C/CN1CCCCC1", "note": "[dacomitinib, Dacomitinib]", "values": [{"measurement": "Dry skin, number of patients with treatment-related AE", "setting": "30 mg QD (n = 3), G3", "value": 0}, {"measurement": "ECG QT prolonged, number of patients with treatment-related AE", "setting": "30 mg QD (n = 3), G3", "value": 0}, {"measurement": "Edema, number of patients with treatment-related AE", "setting": "30 mg QD (n = 3), G3", "value": 0}, {"measurement": "Fatigue, number of patients with treatment-related AE", "setting": "30 mg QD (n = 3), G3", "value": 0}, {"measurement": "Hematuria, number of patients with treatment-related AE", "setting": "30 mg QD (n = 3), G3", "value": 0}, {"measurement": "Hypertrichosis, number of patients with treatment-related AE", "setting": "30 mg QD (n = 3), G3", "value": 0}, {"measurement": "Leukopenia, number of patients with treatment-related AE", "setting": "30 mg QD (n = 3), G3", "value": 0}, {"measurement": "Nausea, number of patients with treatment-related AE", "setting": "30 mg QD (n = 3), G3", "value": 0}, {"measurement": "Palmar–plantar erythrodysesthesia, number of patients with treatment-related AE", "setting": "30 mg QD (n = 3), G3", "value": 0}, {"measurement": "Paronychia, number of patients with treatment-related AE", "setting": "30 mg QD (n = 3), G3", "value": 0}, {"measurement": "Proteinuria, number of patients with treatment-related AE", "setting": "30 mg QD (n = 3), G3", "value": 0}, {"measurement": "Rash, number of patients with treatment-related AE", "setting": "30 mg QD (n = 3), G3", "value": 0}, {"measurement": "Skin fissures, number of patients with treatment-related AE", "setting": "30 mg QD (n = 3), G3", "value": 0}, {"measurement": "Stomatitis, number of patients with treatment-related AE", "setting": "30 mg QD (n = 3), G3", "value": 0}, {"measurement": "Weight decreased, number of patients with treatment-related AE", "setting": "30 mg QD (n = 3), G3", "value": 0}, {"measurement": "Alanine aminotransferase increased, number of patients with treatment-related AE", "setting": "45 mg QD (n = 7), All", "value": 2}, {"measurement": "Aspartate aminotransferase increased, number of patients with treatment-related AE", "setting": "45 mg QD (n = 7), All", "value": 2}, {"measurement": "Blood bilirubin increased, number of patients with treatment-related AE", "setting": "45 mg QD (n = 7), All", "value": 2}, {"measurement": "Cheilitis, number of patients with treatment-related AE", "setting": "45 mg QD (n = 7), All", "value": 2}, {"measurement": "Conjunctivitis, number of patients with treatment-related AE", "setting": "45 mg QD (n = 7), All", "value": 3}, {"measurement": "Decreased appetite, number of patients with treatment-related AE", "setting": "45 mg QD (n = 7), All", "value": 2}, {"measurement": "Diarrhea, number of patients with treatment-related AE", "setting": "45 mg QD (n = 7), All", "value": 7}, {"measurement": "Dry skin, number of patients with treatment-related AE", "setting": "45 mg QD (n = 7), All", "value": 5}, {"measurement": "ECG QT prolonged, number of patients with treatment-related AE", "setting": "45 mg QD (n = 7), All", "value": 0}, {"measurement": "Edema, number of patients with treatment-related AE", "setting": "45 mg QD (n = 7), All", "value": 2}, {"measurement": "Fatigue, number of patients with treatment-related AE", "setting": "45 mg QD (n = 7), All", "value": 5}, {"measurement": "Hematuria, number of patients with treatment-related AE", "setting": "45 mg QD (n = 7), All", "value": 2}, {"measurement": "Hypertrichosis, number of patients with treatment-related AE", "setting": "45 mg QD (n = 7), All", "value": 2}, {"measurement": "Leukopenia, number of patients with treatment-related AE", "setting": "45 mg QD (n = 7), All", "value": 3}, {"measurement": "Nausea, number of patients with treatment-related AE", "setting": "45 mg QD (n = 7), All", "value": 2}, {"measurement": "Palmar–plantar erythrodysesthesia, number of patients with treatment-related AE", "setting": "45 mg QD (n = 7), All", "value": 2}, {"measurement": "Paronychia, number of patients with treatment-related AE", "setting": "45 mg QD (n = 7), All", "value": 6}, {"measurement": "Proteinuria, number of patients with treatment-related AE", "setting": "45 mg QD (n = 7), All", "value": 3}, {"measurement": "Rash, number of patients with treatment-related AE", "setting": "45 mg QD (n = 7), All", "value": 7}, {"measurement": "Skin fissures, number of patients with treatment-related AE", "setting": "45 mg QD (n = 7), All", "value": 2}, {"measurement": "Stomatitis, number of patients with treatment-related AE", "setting": "45 mg QD (n = 7), All", "value": 5}, {"measurement": "Weight decreased, number of patients with treatment-related AE", "setting": "45 mg QD (n = 7), All", "value": 2}, {"measurement": "Alanine aminotransferase increased, number of patients with treatment-related AE", "setting": "45 mg QD (n = 7), G1", "value": 0}, {"measurement": "Aspartate aminotransferase increased, number of patients with treatment-related AE", "setting": "45 mg QD (n = 7), G1", "value": 0}, {"measurement": "Blood bilirubin increased, number of patients with treatment-related AE", "setting": "45 mg QD (n = 7), G1", "value": 0}, {"measurement": "Cheilitis, number of patients with treatment-related AE", "setting": "45 mg QD (n = 7), G1", "value": 2}, {"measurement": "Conjunctivitis, number of patients with treatment-related AE", "setting": "45 mg QD (n = 7), G1", "value": 3}, {"measurement": "Decreased appetite, number of patients with treatment-related AE", "setting": "45 mg QD (n = 7), G1", "value": 0}, {"measurement": "Diarrhea, number of patients with treatment-related AE", "setting": "45 mg QD (n = 7), G1", "value": 4}, {"measurement": "Dry skin, number of patients with treatment-related AE", "setting": "45 mg QD (n = 7), G1", "value": 5}, {"measurement": "ECG QT prolonged, number of patients with treatment-related AE", "setting": "45 mg QD (n = 7), G1", "value": 0}, {"measurement": "Edema, number of patients with treatment-related AE", "setting": "45 mg QD (n = 7), G1", "value": 1}, {"measurement": "Fatigue, number of patients with treatment-related AE", "setting": "45 mg QD (n = 7), G1", "value": 1}, {"measurement": "Hematuria, number of patients with treatment-related AE", "setting": "45 mg QD (n = 7), G1", "value": 2}, {"measurement": "Hypertrichosis, number of patients with treatment-related AE", "setting": "45 mg QD (n = 7), G1", "value": 2}, {"measurement": "Leukopenia, number of patients with treatment-related AE", "setting": "45 mg QD (n = 7), G1", "value": 1}, {"measurement": "Nausea, number of patients with treatment-related AE", "setting": "45 mg QD (n = 7), G1", "value": 1}, {"measurement": "Palmar–plantar erythrodysesthesia, number of patients with treatment-related AE", "setting": "45 mg QD (n = 7), G1", "value": 0}, {"measurement": "Paronychia, number of patients with treatment-related AE", "setting": "45 mg QD (n = 7), G1", "value": 1}, {"measurement": "Proteinuria, number of patients with treatment-related AE", "setting": "45 mg QD (n = 7), G1", "value": 2}, {"measurement": "Rash, number of patients with treatment-related AE", "setting": "45 mg QD (n = 7), G1", "value": 1}, {"measurement": "Skin fissures, number of patients with treatment-related AE", "setting": "45 mg QD (n = 7), G1", "value": 1}, {"measurement": "Stomatitis, number of patients with treatment-related AE", "setting": "45 mg QD (n = 7), G1", "value": 4}, {"measurement": "Weight decreased, number of patients with treatment-related AE", "setting": "45 mg QD (n = 7), G1", "value": 0}, {"measurement": "Alanine aminotransferase increased, number of patients with treatment-related AE", "setting": "45 mg QD (n = 7), G2", "value": 1}, {"measurement": "Aspartate aminotransferase increased, number of patients with treatment-related AE", "setting": "45 mg QD (n = 7), G2", "value": 1}, {"measurement": "Blood bilirubin increased, number of patients with treatment-related AE", "setting": "45 mg QD (n = 7), G2", "value": 1}, {"measurement": "Cheilitis, number of patients with treatment-related AE", "setting": "45 mg QD (n = 7), G2", "value": 0}, {"measurement": "Conjunctivitis, number of patients with treatment-related AE", "setting": "45 mg QD (n = 7), G2", "value": 0}, {"measurement": "Decreased appetite, number of patients with treatment-related AE", "setting": "45 mg QD (n = 7), G2", "value": 1}, {"measurement": "Diarrhea, number of patients with treatment-related AE", "setting": "45 mg QD (n = 7), G2", "value": 3}, {"measurement": "Dry skin, number of patients with treatment-related AE", "setting": "45 mg QD (n = 7), G2", "value": 0}, {"measurement": "ECG QT prolonged, number of patients with treatment-related AE", "setting": "45 mg QD (n = 7), G2", "value": 0}, {"measurement": "Edema, number of patients with treatment-related AE", "setting": "45 mg QD (n = 7), G2", "value": 1}, {"measurement": "Fatigue, number of patients with treatment-related AE", "setting": "45 mg QD (n = 7), G2", "value": 4}, {"measurement": "Hematuria, number of patients with treatment-related AE", "setting": "45 mg QD (n = 7), G2", "value": 0}, {"measurement": "Hypertrichosis, number of patients with treatment-related AE", "setting": "45 mg QD (n = 7), G2", "value": 0}, {"measurement": "Leukopenia, number of patients with treatment-related AE", "setting": "45 mg QD (n = 7), G2", "value": 2}, {"measurement": "Nausea, number of patients with treatment-related AE", "setting": "45 mg QD (n = 7), G2", "value": 1}, {"measurement": "Palmar–plantar erythrodysesthesia, number of patients with treatment-related AE", "setting": "45 mg QD (n = 7), G2", "value": 2}, {"measurement": "Paronychia, number of patients with treatment-related AE", "setting": "45 mg QD (n = 7), G2", "value": 5}, {"measurement": "Proteinuria, number of patients with treatment-related AE", "setting": "45 mg QD (n = 7), G2", "value": 1}, {"measurement": "Rash, number of patients with treatment-related AE", "setting": "45 mg QD (n = 7), G2", "value": 4}, {"measurement": "Skin fissures, number of patients with treatment-related AE", "setting": "45 mg QD (n = 7), G2", "value": 1}, {"measurement": "Stomatitis, number of patients with treatment-related AE", "setting": "45 mg QD (n = 7), G2", "value": 1}, {"measurement": "Weight decreased, number of patients with treatment-related AE", "setting": "45 mg QD (n = 7), G2", "value": 2}]}]}
